≈ marks a conversion by molar mass, not a printed value.
Assays:
[1] = test system: mouse model of focal ischemic stroke; experiment: Focal cerebral ischemia-reperfusion (middle cerebral artery occlusion) model; format: in vivo, C57BL/6 mice; conditions: administered 1 h after ischemia onset
Procedure: (§1) FIG. 4 illustrates that a compound of formula (I) improves functional outcome (e.g., ambulation) and reduces brain damage in a mouse model of focal ischemic stroke in an embodiment of the invention. In FIG. 4A neurological function is scored at 24, 48 and 72 hours post-stroke. In FIG. 4B infarct volume is quantified at 72 hours post-stroke. Values are the mean and SEM (n=8-12 mice). *p<0.001 compared to sham. +p<0.01 compared to vehicle.
as §1, with “FIG. 5” for “FIG. 4”, “that compounds” for “that a compound”, “(I) improve” for “(I) improves”, “outcome” for “outcome (e.g., ambulation)”, “FIG. 5A,” for “FIG. 4A”, “FIG. 5B,” for “FIG. 4B”
Three month-old male C57BL/6 mice are maintained on a 12 h light/12 h dark cycle with continuous access to food and water. The method for subjecting the mice to middle cerebral artery occlusion-reperfusion has been described previously (Arumugam et al., Am. J. Physiol. Heart Circ. Physiol., 287, H2555-2560 (2004)). Mice are anesthetized with isofluorane, a midline incision is made in the neck, and the left external carotid and pterygopalatine arteries are isolated and ligated with 5-0 silk thread. The internal carotid artery (ICA) is occluded at the peripheral site of the bifurcation of the internal carotid artery and the pterygopalatine artery with a small clip and the common carotid artery is ligated with 5-0 silk thread. The external carotid artery is cut, and a 6-0 nylon monofilament with a tip that is blunted (0.2-0.22 mm) with a coagulator is inserted into the external carotid artery. After the clip at the ICA is removed, the nylon thread is advanced into the middle cerebral artery until light resistance is felt. The nylon thread and the common carotid artery ligature are removed after 1 h of occlusion to initiate reperfusion. In the sham group, these arteries are visualized but not disturbed. Mice are administered either uric acid analogs of formula (I) or vehicle (dimethylsulfoxide) by infusion into the femoral vein (10 μl infused over a 2 min period) either 30 min prior to or 60 min after the onset of middle cerebral artery (MCA) occlusion. In a separate set of experiments anesthetized animals from all groups (4-6 mice per group) undergo cerebral blood flow (CBF) measurements using a laser Doppler perfusion monitor. All blood flow measurements are conducted with the mouse fixed in a plastic frame with the probe placed in the region of cerebral cortex perfused by the middle cerebral artery. These procedures are approved by the National Institute on Aging Animal Care and Use Committee.
The functional consequences of focal cerebral ischemia-reperfusion injury are evaluated by using a five-point neurological deficit score (0, no deficit; 1, failure to extend right paw; 2, circling to the right; 3, falling to the right; and 4, unable to walk spontaneously) and are assessed in a blinded fashion. At 72 h of reperfusion, the mice are killed with a lethal dose of isofluorane. The brains are immediately removed and placed into PBS (4° C.) for 15 min, and 2-mm coronal sections are cut with a tissue cutter. The brain sections are stained with 2% 2,3,5-triphenyltetrazolium chloride in phosphate buffer at 37° C. for 15 min. The stained sections are photographed, and the digitized images are used for analysis. The borders of the infarct in each brain slice are outlined and the area quantified using a NIH image 6.1 software. To correct for brain swelling, the infarct area is determined by subtracting the area of undamaged tissue in the left hemisphere from that of the intact contralateral hemisphere. Infarct volume is calculated by integration of infarct areas for all slices of each brain.

[2] = Water solubility in cold water; format: physicochemical
Procedure: Commercially available derivatives are obtained from Sigma-Aldrich (St. Louis, Mo.). The methods used for the synthesis of methyl- and sulfur-derivatives of uric acid are similar to those described previously (Beaman et al., J. Org. Chem., 27, 986-990 (1962) and Maruyama et al., Nucleosides, Nucleotides, Nucleic Acids, 19, 1193-1203 (2000)) and structures are confirmed by ^13C nuclear magnetic resonance (NMR) and ultra-violet (UV) spectral analyses. Uric acid analogs are assayed by high performance liquid chromatography (HPLC) and found to be of >97% purity.

[3] = test system: cultured hippocampal neurons; experiment: Oxygen and glucose deprivation (OGD) of cultured hippocampal neurons; format: cell-based, rat; conditions: compared to neurons in control cultures; FIG. 2
Procedure: FIG. 2 illustrates that compounds of formula (I) protect cultured hippocampal neurons against ischemia-like conditions in an embodiment of the invention. Neuronal survival is quantified and values are the mean and SEM (n=8-10 cultures). *p<0.05 compared to the vehicle/OGD cultures. Synaptosomes are prepared from the cerebral cortex of 2-3 month-old adult male Sprague-Dawley rats and are cryopreserved using methods described previously (Begley et al., Brain Res. Protoc., 3, 76-82 (1998)). After thawing, cryopreserved synaptosomes are washed twice with Locke's buffer and plated in 24-well plates at a protein concentration of 250 μg per well. After a 30 min period to permit attachment of the synaptosomes to the substrate, synaptomoses are incubated for 1 h with compounds of formula (I) (1-10 μM), and then exposed for 4 h to freshly prepared 50 μM Fe^2+ (FeSO4). After an additional 30 min incubation in the presence of 10 μM dihydrorhodamine 123 (DHR), a probe for ROS which fluoresces when oxidized (Keller et al., J. Neurochem., 69, 273-284 (1997)), the synaptosomes are washed twice with Locke's buffer and levels of fluorescence are quantified using a fluorescence plate reader (488 nm excitation and 510 emission wavelengths). Fluorescence values for wells exposed to experimental treatments are expressed as a percentage of the mean value for untreated control wells. […] Methods for preparation and maintenance of cultures of PC12 cells and primary embryonic rat hippocampal neurons have been described previously (Furukawa et al., J. Neurosci., 17, 8178-8186 (1997) and Chan et al., J. Biol. Chem., 279, 28733-28743 (2004)). Cells are plated into polyethylenimine-coated plastic 96-well culture plates containing Neurobasal medium with B27 supplements. Experiments are performed in 7-8 day-old cultures (hippocampal neurons) or Dulbecco's modified eagle's medium (DMEM) with 10% fetal bovine serum (PC12 cells). […] Cell viability is quantified by counting viable neurons in premarked microscope fields prior to and following experimental treatment and then calculating percent survival.

[4] = Pharmacokinetics: plasma and brain levels after intravenous administration; format: in vivo, C57BL/6 mice; conditions: mice
Procedure: Mice are administered intravenously 10 mg/kg ([…]) of uric acid as a reference compound and equimolar doses of its analogs (sUA4-2,6,8 trithio uric acid, 12.9 mg/kg; mUA2-1,7 dimethyl uric acid, 11.7 mg/kg; sUA2-6,8 dithio uric acid, 11.9 mg/kg). Three month-old male C57BL/6 mice are injected with a compound and are euthanized 15, 30, 60 or 120 min later (1 mouse/time point/compound). Blood and brain tissues are rapidly removed, frozen on dry ice and kept at −80° C. before quantification of uric acid analogs. Plasma and cerebral cortical tissues are extracted in 10 volumes of 0.5 M perchloric acid and 1 mM ethylenediamine tetraacetic acid (EDTA). Levels of uric acid analogs in the extracts are quantified by HPLC methods employing a 25 cm RP C18 column, 25 mM KH2PO4 buffer (pH=4.6) with 1 ml/min flow rate and UV diode array detection.
Mice that are administered mUA2, sUA2 or sUA4 intravenously are euthanized at increasing time points (15, 30, 60 and 120 min) and levels of the compounds in plasma and brain tissue are measured.

[5] = test system: skin wound; experiment: Punch biopsy wound healing model; format: in vivo, C57BL/6 mice; conditions: single topical dose at time of wounding; on average; saline control greater than 13 days
Text: A defined wound is created with a 4 mm Accuderm human punch biopsy kit (Accuderm, Ft Lauderdale, Fla.) in C57BL/6 mice. Specifically, the loose skin on the back of a mouse was brought together and, under anesthetic, a single punch was made through either side to create two wounds through the skin alone—without affecting underlying tissue. Immediately post-wounding, the wounds are either treated topically with normal saline (to serve as the non-treated control group) or with a compound of formula (I). Each day the wounds are digitally photographed and wound areas are determined by computer integration of the photographs. Wound area at the time of wounding (day 0) is arbitrarily set to a relative value of 1 for all wounds; such that subsequent wound areas are converted to relative wound areas by dividing the wound area at day n by the wound area at day zero.

solubility [2]: 2000 µg/mL (≈ 9.99 mM) | Kp ([4]; male, C57BL/6, mouse, brain (cerebral cortical tissue) / plasma, early time points (15-30 min), read-out: brain tissue concentration as percentage of plasma concentration): ~0.1
Compound: O=c1[nH]c(=S)c2[nH]c(=S)[nH]c2[nH]1 [sUA2, 6,8 dithio uric acid]
functional outcome (neurological deficit score) ([1]; FIG. 5A): significantly improve functional outcome | brain damage ([1]; FIG. 5B): decrease brain damage | resistance to OGD induced death [3]: significantly more resistant | detection in the brain ([4]; equimolar to 10 mg/kg uric acid, 15, 30, 60 and 120 min): detected in the brain at all time points examined | brain concentration time course versus plasma ([4]; through the 120 min time point): remain elevated while plasma concentrations decrease progressively | time to wound closure post wounding [5]: 8 days

— patent US20100105707A1, “METHOD OF TREATING OR PREVENTING OXIDATIVE STRESS-RELATED DISEASE” (The United States of America, priority 2006, published 2010)
